The values below come from patent US20160046618A1, “Cyclopropyl Fused Thiazin-2-Amine Compounds as Beta-Secretase Inhibitors and Methods of Use” (AMGEN INC., priority 2014, published 2016).

One assay concerns the target human recombinant BACE1 (Homo sapiens (Human), UniProt P56817). Description: In vitro enzymatic BACE1 FRET assay. It counts as biochemical. The following applies: read-out: IC50 IP (μM) BACE1 enzyme. In a few lines:
(§1)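 Ni-NTA-purified recombinant protease incubated with compound; reaction started with 50 nM FRET peptide substrate (fluorophore/quencher flanking the BACE cleavage site) and run 1 h. Stopped with Tris buffer raising pH to neutral; fluorescence read at ex 488/em 590 nm.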

Another assay deals with Recombinant Cat D (Homo sapiens (Human), UniProt P07339). Description: In vitro enzymatic Cathepsin D (Cat D) FRET assay. The format is biochemical. The following applies: read-out: IC50 IP (μM) CatD. In outline:
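Recombinant Cat D expressed in CHO cells, assayed in 0.05 M citrate pH 3.5 with 5 mM CHAPS and 10% DMSO final. Reaction started with 20 nM FRET peptide substrate, incubated one hour, then stopped by Tris buffer to neutral pH; fluorescence read at ex 500/em 580 nm.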

A further assay deals with human recombinant BACE2 (Homo sapiens (Human), UniProt Q9Y5Z0). Description: In vitro enzymatic BACE2 FRET assay. It counts as biochemical. The following applies: read-out: IC50 IP (μM) BACE2 enzyme. In outline:
as §1

In assay [1] the test system is Aβ40 in conditioned medium of cells stably expressing Amyloid Precursor Protein (APP). Description: In vitro BACE-1 cell-based assay (Aβ40 sandwich ELISA). The following applies: read-out: IC50 IP (μM) BACE1 cell. In outline:
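APP-expressing cells treated 24 h at 37 °C with compound in 10-point dose response (top 100 μM or 10 μM, 0.1% DMSO final). Secreted Aβ40 in conditioned medium quantified by sandwich ELISA (pAb40 capture, biotinylated 6E10 detection, time-resolved europium fluorescence); IC50 from percent inhibition versus concentration.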

Where two headings read alike, the source gives them in different places.

human recombinant BACE1, sequence (P56817 46-501): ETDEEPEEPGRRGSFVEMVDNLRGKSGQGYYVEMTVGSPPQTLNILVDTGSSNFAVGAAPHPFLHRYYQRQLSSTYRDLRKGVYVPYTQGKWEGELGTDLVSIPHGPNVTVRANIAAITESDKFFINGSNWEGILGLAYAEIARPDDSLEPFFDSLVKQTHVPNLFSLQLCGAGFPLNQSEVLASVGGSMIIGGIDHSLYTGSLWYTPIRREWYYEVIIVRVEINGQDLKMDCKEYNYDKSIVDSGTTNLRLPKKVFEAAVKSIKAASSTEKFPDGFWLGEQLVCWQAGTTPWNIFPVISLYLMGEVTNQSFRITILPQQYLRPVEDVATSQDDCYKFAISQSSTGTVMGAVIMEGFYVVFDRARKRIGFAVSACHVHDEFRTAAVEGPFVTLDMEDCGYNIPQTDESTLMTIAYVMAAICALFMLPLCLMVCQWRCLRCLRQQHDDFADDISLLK
Recombinant Cat D, sequence (P07339 65-412): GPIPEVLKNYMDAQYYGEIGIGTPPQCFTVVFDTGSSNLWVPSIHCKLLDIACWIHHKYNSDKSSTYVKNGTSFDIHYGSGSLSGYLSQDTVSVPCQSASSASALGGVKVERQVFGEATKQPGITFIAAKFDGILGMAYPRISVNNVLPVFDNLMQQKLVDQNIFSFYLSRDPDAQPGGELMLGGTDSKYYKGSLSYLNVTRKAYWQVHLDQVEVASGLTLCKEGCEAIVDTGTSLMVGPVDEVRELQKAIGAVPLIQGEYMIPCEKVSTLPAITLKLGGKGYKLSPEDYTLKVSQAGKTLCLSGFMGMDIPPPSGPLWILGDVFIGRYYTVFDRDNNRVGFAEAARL
human recombinant BACE2, sequence (Q9Y5Z0 63-518): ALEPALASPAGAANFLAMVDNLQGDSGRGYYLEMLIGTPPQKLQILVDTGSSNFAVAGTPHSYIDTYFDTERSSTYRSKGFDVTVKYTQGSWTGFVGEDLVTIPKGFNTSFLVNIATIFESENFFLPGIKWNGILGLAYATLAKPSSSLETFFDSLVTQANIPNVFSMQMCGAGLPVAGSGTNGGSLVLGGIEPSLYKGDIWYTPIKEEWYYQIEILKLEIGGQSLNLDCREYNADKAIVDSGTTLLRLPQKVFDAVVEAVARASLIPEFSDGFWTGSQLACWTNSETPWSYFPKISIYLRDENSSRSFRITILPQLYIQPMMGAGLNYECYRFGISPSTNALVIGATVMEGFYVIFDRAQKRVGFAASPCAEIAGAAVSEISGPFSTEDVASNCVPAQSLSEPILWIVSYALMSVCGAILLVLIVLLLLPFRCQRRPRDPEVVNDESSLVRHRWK

As to `C#CCOc1cnc(C(=O)Nc2ccc(F)c([C@@]3(CF)N=C(N)S[C@@]4(c5ocnc5C)C[C@@H]34)c2)cn1` [Example 784, N-(3-((1S,5S,6S)-3-amino-5-(fluoromethyl)-1-(4-methyloxazol-5-yl)-2-thia-4-azabicyclo[4.1.0]hept-3-en-5-yl)-4-fluorophenyl)-5-(prop-2-yn-1-yloxy)pyrazine-2-carboxamide], the IC50 on human recombinant BACE1 is 0.000318 µM; on Recombinant Cat D it was 166 µM; on human recombinant BACE2, less than 0.00203 µM; in assay [1], 0.00152 µM.
With `C[C@]1(c2cc(NC(=O)c3cnc(OCc4ncco4)cn3)cc(F)c2F)N=C(N)S[C@@]2(S(C)(=O)=O)C[C@H]21` [Example 746, N-(3-((1R,5S,6S)-3-amino-5-methyl-1-(methylsulfonyl)-2-thia-4-azabicyclo[4.1.0]hept-3-en-5-yl)-4,5-difluorophenyl)-5-(1,3-oxazol-2-ylmethoxy)-2-pyrazinecarboxamide], the IC50 on human recombinant BACE1 came to 0.000628 µM; on Recombinant Cat D, 880 µM; at human recombinant BACE2 it was 0.00522 µM; in assay [1], 0.00356 µM.
Taken in the same sequence, the figures for `C#CCOc1cnc2c(Nc3ccc(F)c([C@@]4(CF)N=C(N)S[C@@]5(CC#N)C[C@H]54)c3)nccc2n1` [Example 720, ((1R,5S,6S)-3-amino-5-(fluoromethyl)-5-(2-fluoro-5-((2-(2-propyn-1-yloxy)pyrido[3,4-b]pyrazin-5-yl)amino)phenyl)-2-thia-4-azabicyclo[4.1.0]hept-3-en-1-yl)acetonitrile] were 0.000935 µM, 648 µM, 0.0273 µM and 0.00151 µM.
As to `[2H]C([2H])([2H])OC[C@]12C[C@H]1[C@@](C)(c1cc(NC(=O)c3cnc(OCC#C)cn3)cnc1F)N=C(N)S2` [Example 851, N-(5-((1S,5S,6S)-3-amino-5-methyl-1-(((~2~H_3_)methyloxy)methyl)-2-thia-4-azabicyclo[4.1.0]hept-3-en-5-yl)-6-fluoro-3-pyridinyl)-5-(2-propyn-1-yloxy)-2-pyrazinecarboxamide], the IC50 at human recombinant BACE1 is 0.000574 µM; at Recombinant Cat D, 468 µM; at human recombinant BACE2, 0.0184 µM; in assay [1] it was 0.000624 µM.
As to `COC[C@]12C[C@H]1[C@@](CF)(c1cc(NC(=O)c3ncc(C#N)cc3C)ccc1F)N=C(N)S2` [Example 716, N-(3-((1S,5S,6S)-3-amino-5-(fluoromethyl)-1-(methoxymethyl)-2-thia-4-azabicyclo[4.1.0]hept-3-en-5-yl)-4-fluorophenyl)-5-cyano-3-methyl-2-pyridinecarboxamide], the IC50 worked out at 0.00216 µM on human recombinant BACE1, 2290 µM on Recombinant Cat D, 0.00196 µM at human recombinant BACE2 and 0.00431 µM in assay [1].
As for `C#CCOc1cnc(C(=O)Nc2cc(F)c(F)c([C@@]3(C)N=C(N)S[C@@]4(C(=O)NC)C[C@H]43)c2)cn1` [Example 914, (1S,5S,6S)-3-amino-5-(2,3-difluoro-5-(((5-(2-propyn-1-yloxy)-2-pyrazinyl)carbonyl)amino)phenyl)-N,5-dimethyl-2-thia-4-azabicyclo[4.1.0]hept-3-ene-1-carboxamide], the IC50 at human recombinant BACE1 worked out at 0.000464 µM; on Recombinant Cat D, 79.4 µM; at human recombinant BACE2, 0.0108 µM; in assay [1], 0.000534 µM.
For `CN(C)C(=O)COc1cnc2c(Nc3cc(F)c(F)c([C@@]4(C)N=C(N)S[C@@]5(C(F)F)C[C@@H]45)c3)nccc2n1` [Example 878, 2-((5-((3-((1S,5S,6S)-3-amino-1-(difluoromethyl)-5-methyl-2-thia-4-azabicyclo[4.1.0]hept-3-en-5-yl)-4,5-difluorophenyl)amino)pyrido[3,4-b]pyrazin-2-yl)oxy)-N,N-dimethylacetamide], the IC50 was 0.231 µM at human recombinant BACE1, 171 µM on Recombinant Cat D, 0.353 µM at human recombinant BACE2 and 1.07 µM in assay [1].
For the compound `COC[C@]12C[C@H]1[C@@](C)(c1cc(NC(=O)c3cnc(OCC(F)F)cn3)ccc1F)N=C(N)S2` [Example 1057, N-(3-((1S,5S,6S)-3-amino-1-(methoxymethyl)-5-methyl-2-thia-4-azabicyclo[4.1.0]hept-3-en-5-yl)-4-fluorophenyl)-5-(2,2-difluoroethoxy)-2-pyrazinecarboxamide], the IC50 on human recombinant BACE1 was 0.0023 µM; at Recombinant Cat D it was greater than 400 µM; at human recombinant BACE2, 0.158 µM; in assay [1], 0.0033 µM.
For `CC#CCCOc1cnc(C(=O)Nc2ccc(F)c([C@@]3(C)N=C(N)S[C@@]4(COC)C[C@H]43)c2)cn1` [Example 1047, N-(3-((1S,5S,6S)-3-amino-1-(methoxymethyl)-5-methyl-2-thia-4-azabicyclo[4.1.0]hept-3-en-5-yl)-4-fluorophenyl)-5-(3-pentyn-1-yloxy)-2-pyrazinecarboxamide], in that order: 0.0054 µM, greater than 400 µM, 0.189 µM and 0.015 µM.
As to `C#CCOc1ccc(C(=O)Nc2ccc(F)c([C@@]3(CF)N=C(N)S[C@@]4(c5ocnc5C)C[C@@H]34)c2)nc1` [Example 789, N-(3-((1S,5S,6S)-3-amino-5-(fluoromethyl)-1-(4-methyl-1,3-oxazol-5-yl)-2-thia-4-azabicyclo[4.1.0]hept-3-en-5-yl)-4-fluorophenyl)-5-(2-propyn-1-yloxy)-2-pyridinecarboxamide], the IC50 on human recombinant BACE1 was found to be 0.000528 µM; at Recombinant Cat D, 835 µM; on human recombinant BACE2, 0.00936 µM; in assay [1], 0.0259 µM.
As for `C#CCOc1ccc(C(=O)Nc2cc(F)c(F)c([C@@]3(C)N=C(N)S[C@@]4(S(C)(=O)=O)C[C@H]43)c2)nc1` [Example 743, N-(3-((1R,5S,6S)-3-amino-5-methyl-1-(methylsulfonyl)-2-thia-4-azabicyclo[4.1.0]hept-3-en-5-yl)-4,5-difluorophenyl)-5-(2-propyn-1-yloxy)-2-pyridinecarboxamide], the IC50 on human recombinant BACE1 is 0.000395 µM; at Recombinant Cat D, greater than 133 µM; on human recombinant BACE2, 0.00543 µM; in assay [1] it was 0.00971 µM.
Taken in the same sequence, the figures for `COC[C@]12C[C@H]1[C@@](C)(c1cc(Nc3nccc4cc(OCC#CC(F)(F)F)cnc34)cc(F)c1F)N=C(N)S2` [Example 741, N-(3-((1S,5S,6S)-3-amino-1-(methoxymethyl)-5-methyl-2-thia-4-azabicyclo[4.1.0]hept-3-en-5-yl)-4,5-difluorophenyl)-3-((4,4,4-trifluoro-2-butyn-1-yl)oxy)-1,7-naphthyridin-8-amine] were 0.0269 µM, 94.4 µM, 0.658 µM and 1.14 µM.
Taken in the same sequence, the figures for `C[C@]1(c2cc(Nc3ncnc4cc(C#N)cnc34)ccc2F)N=C(N)S[C@]2(CO)[C@H]1C2(F)F` [Example 703, 4-((3-((1S,5S,6R)-3-amino-7,7-difluoro-1-(hydroxymethyl)-5-methyl-2-thia-4-azabicyclo[4.1.0]hept-3-en-5-yl)-4-fluorophenyl)amino)pyrido[3,2-d]pyrimidine-7-carbonitrile] were 0.00594 µM, 340 µM, 0.011 µM and 0.0153 µM.
In the case of `CC#CCOc1cnc(C(=O)Nc2cc(F)c(F)c([C@@]3(C)N=C(N)S[C@@]4(CO)C[C@H]43)c2)c(C)c1` [Example 85, N-(3-((1S,5S,6S)-3-amino-1-(hydroxymethyl)-5-methyl-2-thia-4-azabicyclo[4.1.0]hept-3-en-5-yl)-4,5-difluorophenyl)-5-(2-butyn-1-yloxy)-3-methyl-2-pyridinecarboxamide], the IC50 at human recombinant BACE1 (BACE1 FRET enzyme assay) worked out at 0.00062 µM; on Recombinant Cat D (Cathepsin D FRET enzyme assay) it was 1550 µM; on human recombinant BACE2 (BACE2 FRET enzyme assay) it was 0.0435 µM; in assay [1] (BACE1 cell-based assay), 0.00216 µM.
For `COC[C@]12C[C@H]1[C@@](C)(c1cc(Nc3nccc4cc(OCc5cnco5)cnc34)cc(F)c1F)N=C(N)S2` [Example 726, N-(3-((1S,5S,6S)-3-amino-1-(methoxymethyl)-5-methyl-2-thia-4-azabicyclo[4.1.0]hept-3-en-5-yl)-4,5-difluorophenyl)-3-(1,3-oxazol-5-ylmethoxy)-1,7-naphthyridin-8-amine], the IC50 at human recombinant BACE1 was 0.179 µM; at Recombinant Cat D, greater than 400 µM; on human recombinant BACE2, 0.641 µM; in assay [1] it was 0.406 µM.
As to `CN(C)C(=O)/C=C/[C@]12C[C@H]1[C@@](CF)(c1cc(NC(=O)c3ccc(Cl)cn3)ccc1F)N=C(N)S2` [Example 761, N-(3-((1R,5S,6S)-3-amino-1-((E)-3-(dimethylamino)-3-oxoprop-1-en-1-yl)-5-(fluoromethyl)-2-thia-4-azabicyclo[4.1.0]hept-3-en-5-yl)-4-fluorophenyl)-5-chloropicolinamide], the IC50 was 0.000794 µM at human recombinant BACE1, 364 µM at Recombinant Cat D, less than 0.00203 µM on human recombinant BACE2 and 0.00152 µM in assay [1].
